From ChEMBL document CHEMBL1201862, “PubChem BioAssay data set” (2004) come the findings set out here.

What is called AC50 is the midpoint of the concentration-response curve, whichever way the signal moves. The EC50 is the concentration at which the effect is half-maximal. The term IC50 denotes the point on the concentration scale where inhibition reaches its midpoint.

Calls of active or inactive are those of the source.

The target of test [1] is Dual specificity tyrosine-phosphorylation-regulated kinase 1A (Rattus norvegicus, UniProt Q63470). It counts as biochemical, Homo sapiens.
The next test has as its target Caspase-6 (Homo sapiens, UniProt P55212). Description: human caspase-6 inhibitors, dose response, biochemical, VEID-R110 fluorescence, cherry-pick (AID 720632).
Test [2] addresses T1, RNA-binding protein pos-1 (Caenorhabditis elegans, UniProt G5EF15).
T1 sequence (G5EF15 whole entry): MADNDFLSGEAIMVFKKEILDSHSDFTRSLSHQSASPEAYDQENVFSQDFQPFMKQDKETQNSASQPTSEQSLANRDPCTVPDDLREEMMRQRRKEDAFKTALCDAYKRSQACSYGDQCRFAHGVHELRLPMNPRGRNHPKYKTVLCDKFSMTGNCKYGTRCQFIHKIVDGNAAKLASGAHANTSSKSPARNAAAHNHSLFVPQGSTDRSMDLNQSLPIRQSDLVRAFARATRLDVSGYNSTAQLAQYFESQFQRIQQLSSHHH
In words: inhibitors of POS-1/mex-3 RNA binding, dose response, biochemical, fluorescence polarization (AID 1964).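 Also: purified POS-1 fused to maltose binding protein made in E. coli; potency of compounds blocking POS-1 binding to fluorescent RNA.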 For orientation: Fluorescence polarisation rises when a labelled molecule tumbles more slowly, as on binding a larger partner.

The next test addresses ORF 73 (Human herpesvirus 8, UniProt O40947). In words: inhibitors of C-LANA binding to LBS DNA, dose response, biochemical, fluorescence polarization, cherry-picked samples (AID 504725).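 Also: fluorescence polarization of a labeled DNA duplex reporting LANA DNA binding; potency is for inhibitors that block LANA binding to the DNA.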 The arrangement: species or system Human gammaherpesvirus 8.
The next test has as its system Salmon testes DNA. In words: DNA intercalators displacing acridine orange, dose response, artefact control for KSHV LANA DNA-binding inhibitor project, biochemical, fluorescence polarization, cherry-picked samples, set 2 (AID 504727). The arrangement: species or system Salmonidae.
For test [3], the target named is T2, Dual specificity protein phosphatase 6 (Rattus norvegicus, UniProt Q64346).
T2 sequence (Q64346 whole entry): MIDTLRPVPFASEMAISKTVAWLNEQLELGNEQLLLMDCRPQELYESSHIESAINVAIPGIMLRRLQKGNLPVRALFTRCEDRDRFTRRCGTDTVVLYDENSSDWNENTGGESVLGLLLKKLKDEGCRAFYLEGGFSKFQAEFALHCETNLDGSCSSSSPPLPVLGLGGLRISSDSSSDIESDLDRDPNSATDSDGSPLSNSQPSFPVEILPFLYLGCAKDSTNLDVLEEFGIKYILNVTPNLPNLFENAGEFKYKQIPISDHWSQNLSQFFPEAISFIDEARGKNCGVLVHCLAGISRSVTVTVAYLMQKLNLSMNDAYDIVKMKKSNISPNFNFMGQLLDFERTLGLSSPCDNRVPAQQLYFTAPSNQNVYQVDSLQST
Description: MKP-3 phosphatase inhibitors, primary screen, biochemical, rat enzyme, in vitro (AID 425).

In test [4] the target is T3, 1-phosphatidylinositol 4,5-bisphosphate phosphodiesterase beta-3 (Homo sapiens, UniProt Q01970).
T3 sequence (Q01970 whole entry): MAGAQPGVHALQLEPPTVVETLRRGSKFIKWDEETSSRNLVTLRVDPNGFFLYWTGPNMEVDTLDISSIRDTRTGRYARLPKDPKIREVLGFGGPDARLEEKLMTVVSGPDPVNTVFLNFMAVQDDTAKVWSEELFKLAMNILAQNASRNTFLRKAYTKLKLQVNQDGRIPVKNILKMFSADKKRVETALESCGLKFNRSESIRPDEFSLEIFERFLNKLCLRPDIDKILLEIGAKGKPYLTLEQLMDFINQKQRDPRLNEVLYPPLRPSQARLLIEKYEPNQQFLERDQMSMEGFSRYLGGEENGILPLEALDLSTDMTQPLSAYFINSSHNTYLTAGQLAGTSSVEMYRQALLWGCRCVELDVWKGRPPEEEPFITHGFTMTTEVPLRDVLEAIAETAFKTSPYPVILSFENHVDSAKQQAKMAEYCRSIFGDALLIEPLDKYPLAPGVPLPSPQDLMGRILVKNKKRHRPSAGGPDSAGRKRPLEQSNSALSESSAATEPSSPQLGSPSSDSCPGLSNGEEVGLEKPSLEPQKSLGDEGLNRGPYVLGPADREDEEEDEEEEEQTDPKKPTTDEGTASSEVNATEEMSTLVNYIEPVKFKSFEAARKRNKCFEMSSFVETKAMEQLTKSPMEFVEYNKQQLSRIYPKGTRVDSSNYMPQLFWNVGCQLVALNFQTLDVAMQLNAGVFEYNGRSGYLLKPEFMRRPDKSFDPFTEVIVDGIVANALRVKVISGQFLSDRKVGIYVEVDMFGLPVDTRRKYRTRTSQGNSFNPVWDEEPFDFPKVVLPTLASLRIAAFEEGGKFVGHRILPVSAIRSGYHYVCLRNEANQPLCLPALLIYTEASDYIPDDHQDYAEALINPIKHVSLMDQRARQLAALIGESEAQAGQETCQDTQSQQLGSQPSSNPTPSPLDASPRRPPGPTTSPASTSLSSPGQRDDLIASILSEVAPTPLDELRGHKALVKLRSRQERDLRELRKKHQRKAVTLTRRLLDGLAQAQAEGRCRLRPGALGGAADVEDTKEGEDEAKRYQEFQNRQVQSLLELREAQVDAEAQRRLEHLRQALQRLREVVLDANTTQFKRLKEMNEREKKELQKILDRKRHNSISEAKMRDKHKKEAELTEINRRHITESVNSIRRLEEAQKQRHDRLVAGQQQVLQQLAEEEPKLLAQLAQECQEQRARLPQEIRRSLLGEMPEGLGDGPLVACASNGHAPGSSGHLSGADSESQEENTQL
Description: Fluorescence-based biochemical high throughput dose response assay to identify inhibitors of phospholipase C isozymes (PLC-B3).

Caspase-6, sequence (P55212 24-179 limits assumed): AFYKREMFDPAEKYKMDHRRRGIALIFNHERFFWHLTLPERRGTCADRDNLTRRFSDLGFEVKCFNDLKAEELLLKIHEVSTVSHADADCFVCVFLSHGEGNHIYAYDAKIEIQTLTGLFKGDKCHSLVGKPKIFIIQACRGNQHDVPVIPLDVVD
Caspase-6, sequence (P55212 194-293 limits assumed): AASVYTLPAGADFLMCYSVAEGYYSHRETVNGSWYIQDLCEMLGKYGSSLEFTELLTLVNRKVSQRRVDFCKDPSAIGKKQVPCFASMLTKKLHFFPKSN
ORF 73, sequence (O40947 whole entry): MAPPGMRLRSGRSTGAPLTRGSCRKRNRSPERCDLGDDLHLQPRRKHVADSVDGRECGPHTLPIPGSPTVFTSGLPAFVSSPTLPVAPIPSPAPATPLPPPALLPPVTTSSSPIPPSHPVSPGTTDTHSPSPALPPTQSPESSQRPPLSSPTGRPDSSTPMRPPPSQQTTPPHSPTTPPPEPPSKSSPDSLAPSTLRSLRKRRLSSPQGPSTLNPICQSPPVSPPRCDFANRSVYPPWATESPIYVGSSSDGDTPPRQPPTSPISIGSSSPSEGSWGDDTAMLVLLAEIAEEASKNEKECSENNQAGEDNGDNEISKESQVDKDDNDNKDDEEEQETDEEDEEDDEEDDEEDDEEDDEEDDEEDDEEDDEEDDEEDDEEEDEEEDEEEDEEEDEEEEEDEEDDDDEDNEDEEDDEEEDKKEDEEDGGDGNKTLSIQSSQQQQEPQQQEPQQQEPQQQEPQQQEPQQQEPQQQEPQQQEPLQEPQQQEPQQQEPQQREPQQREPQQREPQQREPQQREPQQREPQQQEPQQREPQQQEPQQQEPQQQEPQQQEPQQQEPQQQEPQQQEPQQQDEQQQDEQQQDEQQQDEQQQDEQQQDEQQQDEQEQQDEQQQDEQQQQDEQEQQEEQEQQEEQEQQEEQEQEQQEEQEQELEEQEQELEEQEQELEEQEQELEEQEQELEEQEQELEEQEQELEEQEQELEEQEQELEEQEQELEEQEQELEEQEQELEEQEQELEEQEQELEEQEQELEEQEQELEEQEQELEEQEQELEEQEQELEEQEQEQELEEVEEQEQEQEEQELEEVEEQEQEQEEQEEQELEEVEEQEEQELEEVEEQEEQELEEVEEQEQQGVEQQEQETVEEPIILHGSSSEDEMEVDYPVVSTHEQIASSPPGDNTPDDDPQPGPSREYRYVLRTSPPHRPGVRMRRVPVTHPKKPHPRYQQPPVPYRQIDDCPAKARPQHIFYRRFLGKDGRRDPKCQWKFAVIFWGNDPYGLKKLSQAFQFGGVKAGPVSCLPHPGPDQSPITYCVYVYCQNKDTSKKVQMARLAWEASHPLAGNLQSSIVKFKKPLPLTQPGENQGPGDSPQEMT

With `O=c1c(O)cccc2cc(O)c(O)c(O)c12` [PURPUROGALLIN], the AC50 in test [1] is 1.61 µM (active); at Caspase-6 it was 0.0804 µM (active); on ORF 73, 25.9 µM (active); in the test on Salmon testes DNA, 49.9 µM (active). For the same compound, in test [2], the EC50 was 6.57 µM (active). The IC50 is 29.2 µM (active) in test [3] and > 123 µM (inactive) in test [4].
